Columns and labels:
Ah receptor [1] = experiment: Receptor capture assay employing anti-ARNT magnetic microparticles; assay type: biochemical; conditions: 1 μl of 1 nM beta-naphthoflavone
Method: Activation of the Ah receptor with dose was performed in a microtiter strip containing 50 μl of Ah receptor preparation, 1 μl of 200 μg/ml biotinylated ARNT, and 1 μl of 1 nM beta-naphthoflavone and incubated for 1 hr at 30° C. To minimize non-specific interactions, 1-2 μg of salmon sperm DNA was added to the activated complex, along with NaCl to a final concentration of 60 mM. After 10 in room temperature, the nucleic acid-tracer (50 fmole) was added, and the reaction allowed to incubate for an additional 10 min at room temperature. Five μl of a 10% solution of microparticles coated with anti-ARNT antibody was added to each well and incubated for 30 min at room temperature on a Wallac microtiter plate shaker. The wells were washed using a using a LifeSep 96P (Dexter, Elk Grove Village, Ill.) magnet designed for separating magnetic particles in a microtiter plate format The strip was placed on the magnetic separator for three minutes. The beads had migrated to the side of the well by this time and the supernatant was removed by aspiration. The beads were washed four additional times with 150 μl of Wash Buffer B. The beads were captured, supernatant removed, and resuspended in the PCR reaction mix and amplified as in Example 2, B. The amplified product was analyzed by gel electrophoresis.

Ah receptor [2] = experiment: Detecting activated Ah receptor in nuclear extracts of treated Hepa 1c1c7 cells; assay type: cell-based, murine; conditions: Hepa 1c1c7 cells treated with 10 μM BNF for 1 hour
Method: Hepa 1c1c7 cells were grown until nearly confluent in Dulbecco's modified Eagle's medium and 8% fetal bovine serum. The cells were treated with 10 μM beta-naphthoflavone (BNF) in DMSO for 1 hour. The cells were then harvested after two washes with ice-cold PBS by centrifugation at 1000×g. The cells were then suspended in 5 packed cell pellet volumes of 10 mM Hepes, pH 7.5 and allowed to stand for 10 min.
The suspended cells were again collected by centrifugation and resuspended in two packed cell pellet volumes of 25 mM Hepes, pH 7.5, 3 mM MgCl2, 1 mM DTT and then lysed with 10 strokes of a Kontes all glass Dounce homogenizer (B type pestle). The resulting homogenate was checked microscopically to confirm cell lysis and then centrifuged for 10 min at 1000×g to pellet the nuclei.
The nuclear extract was prepared as follows. The nuclei were resuspended and incubated for 30 min in 25 mM Hepes, pH 7.5, 3 mM MgCl2, 1 mM DTT containing 0.4 M KCl. The suspension was occasionally vortexed during the 30 min incubation and centrifuged in a microfuge at high speed. Glycerol was added to the supernatant to a 10% concentration. The nuclear extract was diluted to lower the salt concentration prior to testing. The diluent was Hepa 1c1c7 cell extract that was previously boiled in order to inactivate protein factors and cooled to room temperature. […]

AhR = molecular target: T1, AhR (Rattus norvegicus, UniProt P41738); experiment: Receptor capture assay, real-time PCR, AhR derived from rat; assay type: biochemical
T1 construct: The cytosol containing AhR heteromers was stored at; from tissue; host or cells: liver cytosol of Long-Evans rats
T1 sequence (P41738 10-853): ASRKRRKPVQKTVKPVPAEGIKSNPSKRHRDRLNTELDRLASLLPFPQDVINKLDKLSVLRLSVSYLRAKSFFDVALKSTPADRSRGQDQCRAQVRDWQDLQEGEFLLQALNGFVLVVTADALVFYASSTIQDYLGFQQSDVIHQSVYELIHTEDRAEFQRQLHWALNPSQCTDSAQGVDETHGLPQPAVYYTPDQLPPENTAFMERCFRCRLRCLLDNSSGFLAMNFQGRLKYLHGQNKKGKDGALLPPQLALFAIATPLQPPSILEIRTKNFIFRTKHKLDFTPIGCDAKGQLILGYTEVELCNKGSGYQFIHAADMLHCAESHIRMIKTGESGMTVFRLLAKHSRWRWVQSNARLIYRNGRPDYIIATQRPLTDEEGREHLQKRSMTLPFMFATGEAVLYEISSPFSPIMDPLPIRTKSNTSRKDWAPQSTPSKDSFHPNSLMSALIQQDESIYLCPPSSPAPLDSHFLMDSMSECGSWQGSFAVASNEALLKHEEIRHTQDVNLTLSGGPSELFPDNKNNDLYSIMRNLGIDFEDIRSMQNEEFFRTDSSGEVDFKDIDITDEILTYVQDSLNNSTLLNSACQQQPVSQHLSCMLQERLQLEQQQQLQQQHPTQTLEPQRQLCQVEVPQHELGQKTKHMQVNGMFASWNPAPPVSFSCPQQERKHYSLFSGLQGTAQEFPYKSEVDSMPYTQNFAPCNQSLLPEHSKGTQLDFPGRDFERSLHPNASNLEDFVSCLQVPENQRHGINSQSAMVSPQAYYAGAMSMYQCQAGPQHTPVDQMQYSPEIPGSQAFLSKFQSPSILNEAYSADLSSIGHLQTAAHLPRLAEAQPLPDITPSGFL
T1 sequence (P41739 whole entry partner): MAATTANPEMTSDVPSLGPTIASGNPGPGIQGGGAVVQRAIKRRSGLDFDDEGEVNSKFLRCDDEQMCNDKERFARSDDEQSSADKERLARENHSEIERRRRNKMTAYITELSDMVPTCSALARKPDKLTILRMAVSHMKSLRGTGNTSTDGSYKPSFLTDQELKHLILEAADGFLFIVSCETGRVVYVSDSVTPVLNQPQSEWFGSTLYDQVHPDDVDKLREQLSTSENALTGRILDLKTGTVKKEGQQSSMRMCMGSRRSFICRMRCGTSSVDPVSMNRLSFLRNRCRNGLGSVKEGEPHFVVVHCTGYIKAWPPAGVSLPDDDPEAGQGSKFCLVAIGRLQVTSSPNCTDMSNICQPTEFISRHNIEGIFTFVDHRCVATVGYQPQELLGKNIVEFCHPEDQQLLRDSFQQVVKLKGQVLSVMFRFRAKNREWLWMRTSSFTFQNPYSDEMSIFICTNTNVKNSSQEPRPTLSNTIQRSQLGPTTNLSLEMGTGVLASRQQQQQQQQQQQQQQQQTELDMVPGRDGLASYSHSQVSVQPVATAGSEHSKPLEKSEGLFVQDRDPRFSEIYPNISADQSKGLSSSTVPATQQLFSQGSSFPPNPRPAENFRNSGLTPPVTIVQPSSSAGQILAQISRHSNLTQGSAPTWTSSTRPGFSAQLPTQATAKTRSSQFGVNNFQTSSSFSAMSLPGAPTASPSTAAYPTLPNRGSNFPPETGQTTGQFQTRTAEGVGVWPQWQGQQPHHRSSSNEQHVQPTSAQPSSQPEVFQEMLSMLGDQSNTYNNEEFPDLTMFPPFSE
Method: A set of calibrators consisting of 5000, 2500, 1250, 626, 313, 156, and 78 parts per trillion (ppt or pg/ml) 2,3,7,8-tetrachlorodibenzo-p-dioxin (TCDD) was prepared in methanol. In addition to TCDD a set of calibrators for AhR agonist, beta-naphthoflavone (BNF) was prepared and analyzed in the assay. Separately, 25 ul of 1:50,000 dilution of 10 uM stock nucleic acid-tracer was added per 1 ml of rodent cytosol, which was the source of AhR, and was aliquoted into glass tubes. The standards were diluted 1:20 into 50-100 ul of rodent cytosol, and incubated for 1-2 hr at room temperature to 37° C. Following incubation, 40 to 100 ul of the reaction was transferred to each well of the antibody-coated Capture Strip and incubated on a shaking platform for 30 min to 1 hr at room temperature. The Capture Strips were washed 5 times with Wash Buffer B, and aspirated; optionally soaking wells for 30 sec-5 min with wash buffer during each cycle. Taqman® Universal PCR Master Mix, primers, and Taqman® probe (Applied Biosystems, Calif.) were added, and adhesive cover applied. PCR was performed and analyzed using an ABI PRISM® 7700, using default settings: 50° C., 2 min, 95° C. […] A threshold cycle (Ct) was determined for each reaction The Ct represents the PCR cycle at which an increase in reporter fluorescence above baseline signal can first be detected.

| SMILES | amplified DNA over DMSO vehicle controls (gel electrophoresis) (Ah receptor [1]) | PCR-amplified DNA over nuclear extracts from DMSO-treated cells (Ah receptor [2]) | slope of dose-response curve (AhR) | EC50 of dose-response curve (AhR; pg of TCDD in the assay) |
| --- | --- | --- | --- | --- |
| O=c1cc(-c2ccccc2)oc2ccc3ccccc3c12 [BNF, beta-naphthoflavone] | significant increase in DNA | significant and reproducible increase in PCR-amplified DNA |  |  |
| Clc1cc2c(cc1Cl)Oc1cc(Cl)c(Cl)cc1O2 [TCDD, 2,3,7,8-tetrachlorodibenzo-p-dioxin] |  |  | −1.208 | 2.8 pg |

From patent publication US20040259096A1, “Receptor capture assay” (priority 2001, published 2004)
